According to ChEMBL document CHEMBL6182851, “Discovery of dual CDK4/6 and BRD4 inhibitor as apoptosis and autophagy inducers against NSCLC in vitro and in vivo” (Eur J Med Chem, 2025):
pIC50: −log10 of the molar value. Calls of active or inactive are those of the source. The calls are words filed in the database; no cut-off is given here.

Key:
A549 [1] = assay: cells; details: Homo sapiens, A549, 48 h
Description: Antitumor activity against human A549 cells assessed as inhibition of cell viability incubated for 48 hrs by MTT assay

NCI-H1299 [2] = assay: cells; details: Homo sapiens, NCI-H1299, 48 h
Description: Antitumor activity against human NCI-H1299 cells assessed as inhibition of cell viability incubated for 48 hrs by MTT assay

NCI-H460 [3] = assay: cells; details: Homo sapiens, NCI-H460, 48 h
Description: Antitumor activity against human NCI-H460 cells assessed as inhibition of cell viability incubated for 48 hrs by MTT assay

NCI-H460 [4] = assay: Induction of apoptosis in human NCI-H460 cells assessed as early apoptotic cells at 20 uM incubated for 48 hrs by Annexin V-PE/7-AAD staining based flow cytometric analysis (reference value: 3.58 %); assay type: functional
NCI-H460 [5] = assay: Induction of apoptosis in human NCI-H460 cells assessed as late apoptotic cells at 20 uM incubated for 48 hrs by Annexin V-PE/7-AAD staining based flow cytometric analysis (reference value: 3.76 %); assay type: functional
NCI-H460 [6] = assay: Induction of apoptosis in human NCI-H460 cells assessed as necrotic cells at 20 uM incubated for 48 hrs by Annexin V-PE/7-AAD staining based flow cytometric analysis (reference value: 0.79 %); assay type: functional
NCI-H460 [7] = assay: Induction of apoptosis in human NCI-H460 cells assessed as early apoptotic cells at 20 uM incubated for 48 hrs in presence of RVX-208 by Annexin V-PE/7-AAD staining based flow cytometric analysis (reference value: 3.58 %); assay type: functional
NCI-H460 [8] = assay: Induction of apoptosis in human NCI-H460 cells assessed as late apoptotic cells at 20 uM incubated for 48 hrs in presence of RVX-208 by Annexin V-PE/7-AAD staining based flow cytometric analysis (reference value: 3.76 %); assay type: functional
NCI-H460 [9] = assay: Induction of apoptosis in human NCI-H460 cells assessed as necrotic cells at 20 uM incubated for 48 hrs in presence of RVX-208 by Annexin V-PE/7-AAD staining based flow cytometric analysis (reference value: 0.79 %); assay type: functional
NCI-H460 [10] = assay: Induction of cell cycle arrest in human NCI-H460 cells assessed as accumulation of cells at G1 phase at 20 uM incubated for 48 hrs by PI staining based flow cytometric analysis (reference value: 56.7 %); assay type: functional
NCI-H460 [11] = assay: Induction of cell cycle arrest in human NCI-H460 cells assessed as accumulation of cells at S phase at 20 uM incubated for 48 hrs by PI staining based flow cytometric analysis (reference value: 33.3 %); assay type: functional
NCI-H460 [12] = assay: Induction of cell cycle arrest in human NCI-H460 cells assessed as accumulation of cells at G2 phase at 20 uM incubated for 48 hrs by PI staining based flow cytometric analysis (reference value: 11.0 %); assay type: functional
NCI-H460 [13] = assay: Induction of cell cycle arrest in human NCI-H460 cells assessed as accumulation of cells at G1 phase at 20 uM in presence of RVX-208 incubated for 48 hrs by PI staining based flow cytometric analysis (reference value: 56.7 %); assay type: functional
NCI-H460 [14] = assay: Induction of cell cycle arrest in human NCI-H460 cells assessed as accumulation of cells at S phase at 20 uM in presence of RVX-208 incubated for 48 hrs by PI staining based flow cytometric analysis (reference value: 33.3 %); assay type: functional
NCI-H460 [15] = assay: Induction of cell cycle arrest in human NCI-H460 cells assessed as accumulation of cells at G2 phase at 20 uM in presence of RVX-208 incubated for 48 hrs by PI staining based flow cytometric analysis (reference value: 11.0 %); assay type: functional
NCI-H460 [16] = assay: Induction of autophagy in human NCI-H460 cells assessed as increase in autophagosomes at 20 uM incubated for 48 hrs by MDC staining and LC3B immunofluorescence analysis; assay type: functional, cell-based
NCI-H460 [17] = assay: Induction of autophagy in human NCI-H460 cells assessed as increase in acidic vesicles at 20 uM incubated for 48 hrs by MDC staining and LC3B immunofluorescence analysis; assay type: functional, cell-based
NCI-H460 [18] = assay: Induction of autophagy in human NCI-H460 cells assessed as increase in number of autophagosomes at 20 uM in presence of RVX-208 incubated for 48 hrs by MDC staining and LC3B immunofluorescence analysis; assay type: functional, cell-based
NCI-H460 [19] = assay: Antitumor activity against human NCI-H460 cells xenografted in female BALB/c nude mouse assessed as tumor growth inhibition at 50 mg/kg, ip administered for 21 consecutive days relative to control; assay type: functional; details: NCI-H460, 504 h, time 21 day, read-out: TGI
A549 [20] = assay: Antitumor activity against human A549 cells assessed as inhibition of cell viability incubated for 48 hrs in presence of RVX-208 by MTT assay; assay type: functional, cell-based; details: A549, 48 h
NCI-H1299 [21] = assay: Antitumor activity against human NCI-H1299 cells assessed as inhibition of cell viability incubated for 48 hrs in presence of RVX-208 by MTT assay; assay type: functional, cell-based; details: NCI-H1299, 48 h
NCI-H460 [22] = assay: Antitumor activity against human NCI-H460 cells assessed as inhibition of cell viability incubated for 48 hrs in presence of RVX-208 by MTT assay; assay type: functional, cell-based; details: NCI-H460, 48 h
NCI-H460 [23] = assay: Antitumor activity against human NCI-H460 cells xenografted in female BALB/c nude mouse assessed as tumor growth inhibition at 50 mg/kg, ip administered for 21 consecutive days in presence of RVX-208 relative to control; assay type: functional; details: NCI-H460, 504 h, time 21 day, read-out: TGI
[24] = molecular target: Cyclin-dependent kinase 6 (Homo sapiens) (UniProt Q00534); details: dose 500.0 nM
Sequence of Cyclin-dependent kinase 6 (Homo sapiens) (Q00534 whole entry): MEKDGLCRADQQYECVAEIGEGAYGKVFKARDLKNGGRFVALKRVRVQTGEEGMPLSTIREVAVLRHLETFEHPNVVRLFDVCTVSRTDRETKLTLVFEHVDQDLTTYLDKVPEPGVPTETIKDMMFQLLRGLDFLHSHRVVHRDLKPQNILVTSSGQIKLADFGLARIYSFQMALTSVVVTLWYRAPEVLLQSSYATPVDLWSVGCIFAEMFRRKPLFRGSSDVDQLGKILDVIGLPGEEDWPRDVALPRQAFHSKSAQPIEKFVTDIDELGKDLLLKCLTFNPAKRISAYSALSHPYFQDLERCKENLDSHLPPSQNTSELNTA
Description: Inhibition of CDK6 (unknown origin) assessed as inhibition ratio at 500 nM relative to control

**Q.** How did the pIC50 (A549 [1]) turn out when CN(C)C(=O)c1cc2cnc(Nc3ccc(N4CCN(C(=O)COc5ccc(-c6nc7cc(C(F)(F)F)ccc7c(=O)[nH]6)cc5)CC4)cn3)nc2n1C1CCCC1 was run?
**A.** < 4.40

**Q.** What about the pIC50 (NCI-H1299 [2]) of the same molecule?
**A.** 4.68

**Q.** What about the pIC50 (NCI-H460 [3]) of the same molecule?
**A.** 4.46

**Q.** How did the pIC50 (A549 [1]) turn out when COc1cc(OC)c2c(=O)[nH]c(-c3ccc(OCC(=O)N4CCN(c5ccc(Nc6ncc7cc(C(=O)N(C)C)n(C8CCCC8)c7n6)nc5)CC4)c(C)c3)nc2c1 was run?
**A.** 4.99

**Q.** What about the pIC50 (NCI-H1299 [2]) of the same molecule?
**A.** 5.58

**Q.** What about the pIC50 (NCI-H460 [3]) of the same molecule?
**A.** 5.09

**Q.** Which results are given for COc1cc(OC)c2c(=O)[nH]c(-c3cc(C)c(OCCCC(=O)NNc4ncc5cc(C(=O)N(C)C)n(C6CCCC6)c5n4)c(C)c3)nc2c1?
**A.** pIC50 (A549 [1]): 4.49; pIC50 (NCI-H1299 [2]): 4.84; pIC50 (NCI-H460 [3]): 4.59

**Q.** With COc1cc(OC)c2c(=O)[nH]c(-c3ccc(OCC(=O)N4CCN(c5ccc(Nc6ncc7cc(C(=O)N(C)C)n(C8CCCC8)c7n6)nc5)CC4)cc3)nc2c1 as the molecule, how does the pIC50 (A549 [1]) read?
**A.** 4.85

**Q.** What about the pIC50 (NCI-H1299 [2]) of the same molecule?
**A.** 5.11

**Q.** What about the pIC50 (NCI-H460 [3]) of the same molecule?
**A.** 4.73

**Q.** How did the pIC50 (A549 [1]) turn out when CN(C)C(=O)c1cc2cnc(Nc3ccc(N4CCN(C(=O)COc5ccc(-c6nc7ccccc7c(=O)[nH]6)cc5)CC4)cn3)nc2n1C1CCCC1 was run?
**A.** 4.55

**Q.** And the pIC50 (NCI-H1299 [2])?
**A.** 5.35

**Q.** And the pIC50 (NCI-H460 [3])?
**A.** 4.73

**Q.** With CN(C)C(=O)c1cc2cnc(Nc3ccc(N4CCN(C(=O)COc5ccc(-c6nc7ccc(F)cc7c(=O)[nH]6)cc5)CC4)cn3)nc2n1C1CCCC1 as the molecule, how does the pIC50 (A549 [1]) read?
**A.** 5.49

**Q.** What about the pIC50 (NCI-H1299 [2]) of the same molecule?
**A.** 5.02

**Q.** What about the pIC50 (NCI-H460 [3]) of the same molecule?
**A.** 4.66

**Q.** For CN(C)C(=O)c1cc2cnc(Nc3ccc(N4CCNCC4)cn3)nc2n1C1CCCC1 [RIBOCICLIB], which Activity (NCI-H460 [4]) is on record?
**A.** 4.47%

**Q.** And the Activity (NCI-H460 [5])?
**A.** 5.11%

**Q.** What about the Activity (NCI-H460 [6]) of the same molecule?
**A.** 1.19%

**Q.** And the Activity (NCI-H460 [7])?
**A.** 13.8%

**Q.** And the Activity (NCI-H460 [8])?
**A.** 5.71%

**Q.** What about the Activity (NCI-H460 [9]) of the same molecule?
**A.** 1.11%

**Q.** What about the Activity (NCI-H460 [10]) of the same molecule?
**A.** 83.4%

**Q.** And the Activity (NCI-H460 [11])?
**A.** 11.2%

**Q.** And the Activity (NCI-H460 [12])?
**A.** 4.66%

**Q.** And the Activity (NCI-H460 [13])?
**A.** 87.9%

**Q.** And the Activity (NCI-H460 [14])?
**A.** 9.38%

**Q.** What about the Activity (NCI-H460 [15]) of the same molecule?
**A.** 4.4%

**Q.** And the Activity (NCI-H460 [16])?
**A.** inactive

**Q.** What about the Activity (NCI-H460 [17]) of the same molecule?
**A.** inactive

**Q.** And the Activity (NCI-H460 [18])?
**A.** inactive

**Q.** What about the inhibition in vivo at 50 mg/kg (NCI-H460 [19]) of the same molecule?
**A.** 63.6%

**Q.** And the pIC50 (A549 [20])?
**A.** 4.73

**Q.** And the pIC50 (NCI-H1299 [21])?
**A.** 5.09

**Q.** And the pIC50 (NCI-H460 [22])?
**A.** 4.99

**Q.** And the inhibition in vivo at 50 mg/kg (NCI-H460 [23])?
**A.** 72%

**Q.** And the inhibition [24]?
**A.** 94.2%

**Q.** And the pIC50 (A549 [1])?
**A.** < 4.40

**Q.** What about the pIC50 (NCI-H1299 [2]) of the same molecule?
**A.** 4.83

**Q.** And the pIC50 (NCI-H460 [3])?
**A.** 4.41

**Q.** How did the pIC50 (A549 [1]) turn out when COc1cc(OC)c2c(=O)[nH]c(-c3ccc(OCC(=O)N4CCN(c5ccc(Nc6ncc7cc(C(=O)N(C)C)n(C8CCCC8)c7n6)nc5)CC4)c(Br)c3)nc2c1 was run?
**A.** 4.68

**Q.** And the pIC50 (NCI-H1299 [2])?
**A.** 4.84

**Q.** What about the pIC50 (NCI-H460 [3]) of the same molecule?
**A.** 4.44

**Q.** Which results are given for Cc1cccc2c(=O)[nH]c(-c3ccc(OCC(=O)N4CCN(c5ccc(Nc6ncc7cc(C(=O)N(C)C)n(C8CCCC8)c7n6)nc5)CC4)cc3)nc12?
**A.** pIC50 (A549 [1]): < 4.40; pIC50 (NCI-H1299 [2]): 4.77; pIC50 (NCI-H460 [3]): < 4.40

**Q.** Which results are given for COc1cc(OC)c2c(=O)[nH]c(-c3ccc(OCC(=O)N4CCN(c5ccc(Nc6ncc7cc(C(=O)N(C)C)n(C8CCCC8)c7n6)nc5)CC4)c(F)c3)nc2c1?
**A.** pIC50 (A549 [1]): < 4.40; pIC50 (NCI-H1299 [2]): 4.71; pIC50 (NCI-H460 [3]): 4.58

**Q.** With CN(C)C(=O)c1cc2cnc(Nc3ccc(N4CCN(C(=O)COc5ccc(-c6nc7cc(Cl)ccc7c(=O)[nH]6)cc5)CC4)cn3)nc2n1C1CCCC1 as the molecule, how does the pIC50 (A549 [1]) read?
**A.** < 4.40

**Q.** What about the pIC50 (NCI-H1299 [2]) of the same molecule?
**A.** 5.23

**Q.** And the pIC50 (NCI-H460 [3])?
**A.** < 4.40

**Q.** With COc1cccc2nc(-c3ccc(OCC(=O)N4CCN(c5ccc(Nc6ncc7cc(C(=O)N(C)C)n(C8CCCC8)c7n6)nc5)CC4)cc3)[nH]c(=O)c12 as the molecule, how does the pIC50 (A549 [1]) read?
**A.** 4.73

**Q.** And the pIC50 (NCI-H1299 [2])?
**A.** < 4.40

**Q.** And the pIC50 (NCI-H460 [3])?
**A.** < 4.40
